# Source: US10093611B2, “Benzocycloalkenes as antifungal agents” (Bayer Intellectual Property GmbH, priority 2010, dated 2018)
# How the values were obtained:
# [1] = log P by HPLC on reversed-phase column (C 18), EEC Directive 79/831 Annex V.A8; format: physicochemical; details: C 18 reversed phase, 40° C., 0.1% aqueous formic acid and acetonitrile gradient
# Procedure: In table 1, the log P values were determined in accordance with EEC Directive 79/831 Annex V.A8 by HPLC (High Performance Liquid Chromatography) on a reversed-phase column (C 18), using the method described below: Temperature: 40° C.; Mobile phases: 0.1% aqueous formic acid and acetonitrile; linear gradient from 10% acetonitrile to 90% acetonitrile. Calibration was carried out using unbranched alkan-2-ones (comprising 3 to 16 carbon atoms) with known log P values (determination of the log P values by the retention times using linear interpolation between two successive alkanones). lambda-max-values were determined using UV-spectra from 200 nm to 400 nm and the peak values of the chromatographic signals.
# Alternaria solani = assay: In vivo preventive test on Alternaria solani (tomato); details: 500 ppm of active ingredient, evaluated 7 days after inoculation
# Procedure: EXAMPLE A: IN VIVO PREVENTIVE TEST ON ALTERNARIA SOLANI (TOMATO) Solvent: 49 parts by weight of N,N-dimethylformamide Emulsifier: 1 part by weight of Alkylarylpolyglycolether To produce a suitable preparation of active compound, 1 part by weight of active compound is mixed with the stated amounts of solvent and emulsifier, and the concentrate is diluted with water to the desired concentration. To test for preventive activity, young plants are sprayed with the preparation of active compound at the stated rate of application. One day after this treatment, the plants are inoculated with an aqueous spore suspension of Alternaria solani. The plants remain for one day in an incubation cabinet at approximately 22° C. and a relative atmospheric humidity of 100%. Then the plants are placed in an incubation cabinet at approximately 20° C. and a relative atmospheric humidity of 96%. The test is evaluated 7 days after the inoculation. 0% means an efficacy which corresponds to that of the control while an efficacy of 100% means that no disease is observed. Under these conditions, good (at least 80%) to total protection is observed at a dose of 500 ppm of active ingredient with the following compounds from table A: […]
# Sphaerotheca fuliginea = assay: In vivo preventive test on Sphaerotheca fuliginea (cucumbers); details: 100 ppm of active ingredient, evaluated 7 days after inoculation
# Procedure: EXAMPLE H: IN VIVO PREVENTIVE TEST ON SPHAEROTHECA FULIGINEA (CUCUMBERS) Solvent: 24.5 parts by weight of acetone • 24.5 parts by weight of N,N-dimethylacetamide Emulsifier: 1 part by weight of alkylaryl polyglycol ether To produce a suitable preparation of active compound, 1 part by weight of active compound is mixed with the stated amounts of solvent and emulsifier, and the concentrate is diluted with water to the desired concentration. To test for protect activity, young plants are sprayed with the preparation of active compound at the stated rate of application. After the spray coating has dried on, the plants are inoculated with an aqueous spore suspension of Sphaerotheca fuliginea. The plants are then placed in a greenhouse at approximately 23° C. and a relative atmospheric humidity of approximately 70%. The test is evaluated 7 days after the inoculation. 0% means an efficacy which corresponds to that of the untreated control, while an efficacy of 100% means that no disease is observed. Under these conditions, high (at least 90%) to total protection is observed at a dose of 100 ppm of active ingredient with the following compounds from table H: Under the same conditions, high protection (greater than 80%) is observed at a dose of 500 ppm of active ingredient with compound 7, whereas poor protection (less than 20%) is observed with the isosteric analogue compound CMP2 claimed in WO-2009/016218 as in table H2.
# Uromyces appendiculatus = assay: In vivo preventive test on Uromyces appendiculatus (beans); details: 100 ppm of active ingredient, evaluated 10 days after inoculation
# Procedure: (§1) EXAMPLE I: IN VIVO PREVENTIVE TEST ON UROMYCES APPENDICULATUS (BEANS) Solvent: 24.5 parts by weight of acetone • 24.5 parts by weight of N,N-dimethylacetamide Emulsifier: 1 part by weight of alkylaryl polyglycol ether To produce a suitable preparation of active compound, 1 part by weight of active compound is mixed with the stated amounts of solvent and emulsifier, and the concentrate is diluted with water to the desired concentration. To test for preventive activity, young plants are sprayed with the preparation of active compound at the stated rate of application. After the spray coating has dried on, the plants are inoculated with an aqueous spore suspension of the causal agent of bean rust (Uromyces appendiculatus) and then remain for 1 day in an incubation cabinet at approximately 20° C. and a relative atmospheric humidity of 100%. The plants are then placed in a greenhouse at approximately 21° C. and a relative atmospheric humidity of approximately 90%. The test is evaluated 10 days after the inoculation. 0% means an efficacy which corresponds to that of the untreated control, while an efficacy of 100% means that no disease is observed. Under these conditions, excellent (at least 95%) to total protection is observed at a dose of 100 ppm of active ingredient with the following compounds from table I: […]
# Venturia inaequalis = assay: In vivo preventive test on Venturia inaequalis (apples); details: 100 ppm of active ingredient, evaluated 10 days after inoculation
# Procedure: as §1, with “J:” for “I:”, “VENTURIA INAEQUALIS (APPLES)” for “UROMYCES APPENDICULATUS (BEANS)”, “conidia” for “spore”, “apple scab (Venturia inaequalis)” for “bean rust (Uromyces appendiculatus)”, “conditions,” for “conditions, excellent (at least 95%) to”
Structure (SMILES),logP [1],chromatographic logP ([1]; reversed-phase HPLC column (C 18)),Efficacy (Alternaria solani) [%],Efficacy (Sphaerotheca fuliginea) [%],Efficacy (Uromyces appendiculatus) [%],Efficacy (Venturia inaequalis) [%]
CC(C1Cc2ccccc2C1)N(C(=O)c1cn(C)nc1C(F)F)C1CC1 (stereo not shown) [Example 13],3.33,–,100,95,98,100
"CC(C1Cc2ccccc2C1)N(C(=O)c1c(C(F)F)nn(C)c1F)C1CC1 (stereo not shown) [Example 14, N-cyclopropyl-3-(difluoromethyl)-N-[1-(indan-2-yl)ethyl]-5-fluoro-1-methyl-1H-pyrazole-4-carboxamide]",–,3.76,95,100,–,100
CC(C1CCc2ccccc2C1)N(C(=O)c1c(C(F)F)nn(C)c1F)C1CC1 (stereo not shown) [Example 16],3.99,–,95,100,–,100
CCC(C1CCc2ccccc2C1)N(C(=O)c1c(C(F)F)nn(C)c1F)C1CC1 (stereo not shown) [Example 17],4.41,–,80,–,–,–

# Second part, led by results:
logP [1],chromatographic logP ([1]; reversed-phase HPLC column (C 18)),Structure (SMILES),Efficacy (Alternaria solani) [%],Efficacy (Sphaerotheca fuliginea) [%],Efficacy (Uromyces appendiculatus) [%],Efficacy (Venturia inaequalis) [%]
3.25,–,Cc1nn(C)c(F)c1C(=O)N(C1CC1)C(C)C1Cc2ccccc2C1 (stereo not shown) [Example 11],100,92,100,100
3.67,–,CCc1nn(C)c(F)c1C(=O)N(C1CC1)C(C)C1Cc2ccccc2C1 (stereo not shown) [Example 12],100,95,100,100
